Test results reported in US20240252670A1, “ANTIBODY DRUG CONJUGATE, PREPARATION METHOD THEREFOR AND APPLICATION THEREOF” (TSINGHUA UNIVERSITY, priority 2021, published 2024).

Test system: MC38 tumor
Test: Anti-tumor activity and survival in MC38 mouse tumor model
Type: in vivo
Conditions: MC38 mice, i.p.; antibody drugs 150 μg per mouse, D18 25 μg per mouse; schedule Table 1
Excerpt: A. Treatment with ADC HE-S2, single administration of anti-PD-L1 antibody, D18, or anti-PD-L1 THIOMAB, and anti-PD-L1 antibody/D18 combined administration for inhibitory activity against mouse MC38 tumor growth. B. Whole animal survival study. The ordinate of the curve represents the percentage of tumor-bearing mice that remained alive after different days, and the abscissa thereof represents the number of experimental days. C. Treatment with ADC HE-S2, single administration of anti-PD-L1 antibody, D18, or anti-PD-L1 THIOMAB, and anti-PD-L1 antibody/D18 combined administration for inhibitory activity against mouse MC38 tumor growth. Student's t test was used to compare significant differences between the groups, and p<0.001 is represented by ***.
To verify the anti-cancer activity of ADC HE-S2, the inventors first made a mouse model with MC38. After the tumor was loaded, a visible tumor could be observed on the mouse surface for about one week. When the mean tumor tissue volume of the mice reached 100 mm^3, the mice were randomly grouped as follows according to the final type of drug administered: IgG isotype control antibody group (abbreviated as IgG), anti-PD-L1 antibody group (anti-PD-L1), anti-PD-L1 THIOMAB group (Thiomab), D18 group (D18), D18/anti-PD-L1 antibody combination treatment group (anti-PD-L1 & D18), and ADC HE-S2 group (ADC HE-S2), with 7-8 mice per group. The IgG isotype control antibody group, the anti-PD-L1 antibody (i.e., avelumab as described in Example 2) group, and the anti-PD-L1 THIOMAB (i.e., mutant antibody prepared in Example 2) group were administered twice a week via intraperitoneal injection of 150 μg per mouse for each time. The D18 group was administered twice a week via intraperitoneal injection of 25 μg per mouse for each time. In the D18/anti-PD-L1 antibody combination treatment group, the anti-PD-L1 antibody was dosed twice a week, 150 μg per mouse for each time; the D18 was dosed […], 25 μg per mouse for each time; in the ADC HE-S2 group, ADC HE-S2 was dosed once a week via intraperitoneal injection of 150 μg per mouse for each time; the anti-PD-L1 antibody was dosed once a week, staggered from the administration of the ADC, via intraperitoneal injection of 150 μg per mouse for each time.
Dosage: Antibody drugs, administered 150 μg per mouse for each time, and D18, administered 25 μg per mouse for each time. - means no administration on the day. * Only mice with MC38 tumor model were allowed to be administered until the 24th day, and mice with B16 tumor model were no longer administered after the 21st day.

Substance: anti-PD-L1 THIOMAB: mutant avelumab, light chain V205C (SEQ ID NO: 9), heavy chain SEQ ID NO: 4; pHrodo red labeled in internalization tests
- inhibitory activity against MC38 tumor growth: slightly superior to the efficacy of the IgG isotype antibody
